# Source: patent publication US20130065959A1, “SANITIZING MEAT WITH PERACID AND 2-HYDROXY ORGANIC ACID COMPOSITIONS” (Fresh Express Incorporated, priority 2009, published 2013)
# Experiments:
# Type in all cases: cell-based
# [1] = system: Pseudomonas aeruginosa (ATCC 9027); assay: Attached cells on non-food surface coupons (Example 6); conditions: 90 sec
# Protocol: Inoculum preparation: Pseudomonas aeruginosa (ATCC 9027) freeze dried culture was rehydrated in 10 mL of sterilized nutrient broth (NB) and mixed homogeneously. 0.1 mL of the stock solution was transferred to 10 mL of NB and incubated at 37C for 24 h. Enrichment was streaked to confirm purity. 10 mL of the enriched stock was transferred to 1,000 mL of NB and incubated at 37C for 24 h resulting in ˜10^8 cfu/mL stationary phase culture stock. The stock was cooled at 4C for 1 h. Microbial population of the stationary phase stock culture was enumerated by means of serial dilution with 9-mL Butterfield phosphate buffer tubes and spread plating on Nutrient Agar […] pre-poured agar plates.
# Non-food surface inoculation: The 1000 mL˜10^8 cfu/mL stock culture solution was homogeneously mixed by shaking and swirling the Erlenmeyer flask. The 1000 mL culture was separated into 20 centrifuge tubes (50 mL each) and centrifuged at 10,000 rpm and 4C for 15 min. The stock culture pellet was re-suspended with 50 mL of NB. All the re-suspended cultures from the 20 centrifuge tubes were combined to form 1,000 mL˜10^8 cfu/mL inoculating stock culture. 15 mL of the P. aeruginosa inoculating stock together with a non-food surface coupon (2.5 cm×5 cm) were placed in a sterilized 50mL-centrifuge tube and incubated for 24 h at 37C. After 24 hr, the coupon was transferred to a sterile Petri dish and placed in an oven to dry for 1 hour at 35C. The coupons were cut from stainless steel sheet, wood, glass slide, and plastic sheet.
# Treatment of inoculated non-food surfaces: 1 mL of test solution was dispensed onto a 2.5cm×2.5 cm marked area of each inoculated coupon for 60 s. A pre-wet sterilized cotton swab was dipped in 10 mL Butterfield phosphate buffer with sodium thiosulfate and swabbed the marked area on the coupon after 60 s exposure. The swabbed was then immediately placed into the 10 mL Butterfield phosphate buffer with sodium thiosulfate and mixed. One mL was immediately transferred from the aforementioned tube to a 9 mL Butterfield phosphate buffer. The total treatment time including the exposure time, the swabbing time, and the transfer time was 90 s. Each solution treatment was performed in duplications. The reduction for each solution treatment was compared to that of the city water treatment.
# [2] = system: Lactobacillus plantarum 14917; assay: Suspended Cells Challenge Test, 20 s residence time, no surfactant (Example 2)
# Protocol: (§1) Synergism with respect to efficacy in a Suspended Cells Challenge Test at 20 s residence time with no surfactant.
# (§2) The experimental treatment groups were tap water, chlorinated water, a FE sanitizer wash water (FE, FE sanitizer, a solution of peroxyacetic acid and lactic acid, as further specified in a given experiment).
# (§3) The experimental protocol was as follows: • 1. Transfer 1.00 mL of a ˜10^8 cfu/g Lactobacillus plantarum (ATCC 14917) stock culture into a test tube containing 9.00 mL of treatment test solution • 2. Vortex the mixture for 15 s • 3. Stop the reaction by transferring 1 mL of the treated samples to 9 mL of Butterfield Phosphate Buffer • 4. Enumerate viable residual cells through serial dilutions and spread plating with 1-mL transfers • 5. […] Repeat Steps 1 to 5 two more times • 7. Repeat Steps 1 to 6 with flume water • 8. Repeat Steps 1 to 6 with chlorinated water • 9. Repeat Steps 1 to 8 with various levels of FE • 10. Repeat Steps 1 to 8 with various levels of lactic acid • 11. Repeat Steps 1 to 8 with various levels of peroxyacetic acid • 12. Repeat Steps 1 to 11 with Listeria innocua (ATCC33090)
# (§4) • 1. Log […] is a measure of the percent of microorganisms that are inactivated during the disinfection process and is defined as Log Inactivation=Log10 (No/NT) where No is the initial influent concentration of viable microorganisms; NT is the concentration of surviving microorganisms. As M cfu/g=microbial population of stock culture; W cfu/g=microbial population in solution of “Water Treatment” and X cfu/g=microbial population in solution of “X Treatment,” the Log reduction caused by “Treatment X”=Log (w/x)
# [3] = system: Listeria innocua ATCC 33090; assay: as above
# Protocol: as §1, §2, §3, §4
# E. coli K12 = assay: Attached cells challenge test on produce leaves (Example 1)
# [4] = Peroxyacetic acid 0 ppm, Lactic Acid 2000 ppm
# [5] = Peroxyacetic acid 0 ppm, Lactic Acid 2500 ppm
# [6] = Peroxyacetic acid 0 ppm, Lactic Acid 3000 ppm
# [7] = Peroxyacetic acid 70 ppm, Lactic Acid 0 ppm
# [8] = Peroxyacetic acid 75 ppm, Lactic Acid 0 ppm
# [9] = Peroxyacetic acid 80 ppm, Lactic Acid 0 ppm
smiles,measurement,setting,value
"CC(O)C(=O)O (stereo not shown) [Lactic Acid, lactic acid]",Log reductions,"[1]; Glass coupon, PA 0 ppm, LA 1,250 ppm",0.4
same,Log reductions,"[1]; Glass coupon, PA 0 ppm, LA 2,500 ppm",1.7
same,Log reductions,"[1]; Plastic coupon, PA 0 ppm, LA 2,500 ppm",0.6
same,Log reductions,"[1]; Plastic coupon, PA 0 ppm, LA 5,000 ppm",1.2
same,Log reductions,"[1]; Stainless steel coupon, PA 0 ppm, LA 1,250 ppm",1.6
same,Log reductions,"[1]; Stainless steel coupon, PA 0 ppm, LA 2,500 ppm",1.9
same,Log reductions,"[1]; Wood coupon, PA 0 ppm, LA 2,500 ppm",1.4
same,Log reductions,"[1]; Wood coupon, PA 0 ppm, LA 7,500 ppm",3.6
same,log reduction of suspended cells,[2]; [4],0.00 log10
same,log reduction of suspended cells,[2]; [5],0.02 log10
same,log reduction of suspended cells,[2]; [6],0.01 log10
same,log reduction of suspended cells,[3]; [4],0.08 log10
same,log reduction of suspended cells,[3]; [5],0.19 log10
same,log reduction of suspended cells,[3]; [6],0.05 log10
same,"Log reduction, attached cells","E. coli K12; Romaine, PAA 0 ppm, LA 0.6%",0.24
same,"Log reduction, attached cells","E. coli K12; Romaine, PAA 0 ppm, LA 0.9%",0.37
same,"Log reduction, attached cells","E. coli K12; Romaine, PAA 0 ppm, LA 1.2%",1.28
same,"Log reduction, attached cells","E. coli K12; Spinach, PAA 0 ppm, LA 0.6%",0.09
same,"Log reduction, attached cells","E. coli K12; Spinach, PAA 0 ppm, LA 0.9%",0.42
same,"Log reduction, attached cells","E. coli K12; Spinach, PAA 0 ppm, LA 1.2%",0.81
"CC(=O)OO [Peroxyacetic acid, peroxyacetic acid]",Log reductions,"[1]; Glass coupon, PA 60 ppm, LA 0 ppm",0.2
same,Log reductions,"[1]; Glass coupon, PA 80 ppm, LA 0 ppm",0.0
same,Log reductions,"[1]; Plastic coupon, PA 60 ppm, LA 0 ppm",1.2
same,Log reductions,"[1]; Plastic coupon, PA 80 ppm, LA 0 ppm",0.9
same,Log reductions,"[1]; Stainless steel coupon, PA 60 ppm, LA 0 ppm",1.5
same,Log reductions,"[1]; Stainless steel coupon, PA 100 ppm, LA 0 ppm",1.4
same,Log reductions,"[1]; Wood coupon, PA 100 ppm, LA 0 ppm",1.0
same,Log reductions,"[1]; Wood coupon, PA 140 ppm, LA 0 ppm",0.8
same,log reduction of suspended cells,[2]; [7],4.52 log10
same,log reduction of suspended cells,[2]; [8],5.59 log10
same,log reduction of suspended cells,[2]; [9],5.59 log10
same,log reduction of suspended cells,[3]; [7],1.40 log10
same,log reduction of suspended cells,[3]; [8],1.70 log10
same,log reduction of suspended cells,[3]; [9],1.80 log10
same,"Log reduction, attached cells","E. coli K12; Romaine, PAA 60 ppm, LA 0.0%",0.26
same,"Log reduction, attached cells","E. coli K12; Romaine, PAA 70 ppm, LA 0.0%",0.53
same,"Log reduction, attached cells","E. coli K12; Romaine, PAA 80 ppm, LA 0.0%",1.18
same,"Log reduction, attached cells","E. coli K12; Spinach, PAA 60 ppm, LA 0.0%",0.69
same,"Log reduction, attached cells","E. coli K12; Spinach, PAA 70 ppm, LA 0.0%",1.33
same,"Log reduction, attached cells","E. coli K12; Spinach, PAA 80 ppm, LA 0.0%",2.46
